Test results: patent US3976695A, “Halogen substituted α-(aminoalkyl)-3,4-dihydroxybenzyl alcohols” (SmithKline Corporation, priority 1970, dated 1976)
≈ marks a conversion by molar mass, not a printed value.

Assays:
[1] = tested on: guinea pig tracheal chain preparations; assay: relaxation of spontaneous tone of guinea pig tracheal chain (ring) preparation, β-stimulant effect on airway smooth muscle; details: for absolute separation ratio: atrial ED25 versus tracheal ED50, in vitro guinea pig preparations
Source text: (§1) Two in vitro test systems used for determining selective β-stimulant activity are: (1) effect on spontaneous tone of guinea pig tracheal chain preparations as a measure of β-stimulant (direct relaxant) effect on airway smooth muscle, and (2) effect on rate of spontaneously beating right atria of the guinea pig as a measure if β-stimulant effect on cardiac muscle.

[2] = tested on: right atria of the guinea pig; assay: rate of spontaneously beating guinea pig right atria, β-stimulant effect on cardiac muscle; details: Cavia porcellus, in vitro, read-out: ED25, increasing the rate of contraction of guinea pig right atria
Source text: as §1

SMILES	absolute separation ratio [1]	EC25 [2] [ng/mL]	EC50 ([1]; Cavia porcellus, in vitro, guinea pig tracheal ring preparation, read-out: ED50, relaxes the spontaneous tone of guinea pig tracheal ring preparation) [ng/mL]	improvement of absolute separation ratio compared to d, 1-isoproterenol ([1]; versus d, 1-isoproterenol in similar in vitro preparations) [fold]
CC(C)NCC(O)c1ccc(O)c(O)c1 (centres unmarked) [d, 1-isoproterenol, reference compound]	0.5			
CC(C)NCC(O)c1ccc(O)c(O)c1Cl (stereo not drawn) [2-chloro-3,4-dihydroxy-α-(isopropylaminomethyl)-benzyl alcohol]	7	1.6 (≈ 6.51 nM)	0.23 (≈ 0.936 nM)	14
